Earlier results on one compound are cited in patent US9943555B2, “Bacteria engineered to reduce hyperphenylalaninemia” (Synlogic, Inc., priority 2015, dated 2018).

For this series, the system named is patients / subjects with phenylketonuria.

Take `C[C@H](O)[C@H](O)[C@H]1CNc2nc(N)[nH]c(=O)c2N1` [Kuvan, tetrahydrobiopterin]: the side effects entry was “gastritis and severe allergic reactions”.
